Structures can show the parent of a compound that is named as a salt. Where two headings read alike, the source gives them in different places.
What was measured:
[1] = tested on: human small lung cancer cell line H2171; assay: Cell Viability Assay (ATPlite); type: cell-based; conditions: H2171 cells, three days, ATPlite, calculated IC50 class, read-out: H2171 Activity
Protocol: Compounds of the invention were assayed for cell viability using the human small lung cancer cell line H2171 as described in the following protocol. Cells were counted and adjusted to 20,000 cells/mL. Using a Biotek EL406, 50 μL of cells in media were distributed into 384 well white plates from Thermo. Immediately after plating, compound in DMSO was distributed to plates. Compounds were added to plates using a 50 nL 384 well pin transfer manifold on a Janus workstation. Stocks were arrayed in 10 point dose response in DMSO stock in 384 well Greiner compound plates. After the addition of compounds, plates were incubated for three days in a 37° C. incubator. Cell viability was read out using ATPlite from Perkin Elmer. Lyophilized powder was resuspended in lysis buffer and diluted 1:2 with deionized water. 25 μL of this solution was added to each well using the Biotek liquid handler. Plates were incubated for 15 minutes at room temperature before signal was read on an Envision Plate Reader. The data from this assay are summarized in Tables 2 and 3 below (H2171 activity).

c-Myc/Max/Ebox DNA = target: T1, c-Myc/Max/Ebox DNA (Homo sapiens, UniProt P01106); assay: c-Myc/Max/Ebox DNA AlphaScreen Assay; type: binding; conditions: calculated IC50 class
T1 construct: his6 (cleaved yes)
T1 sequence (P01106 whole entry): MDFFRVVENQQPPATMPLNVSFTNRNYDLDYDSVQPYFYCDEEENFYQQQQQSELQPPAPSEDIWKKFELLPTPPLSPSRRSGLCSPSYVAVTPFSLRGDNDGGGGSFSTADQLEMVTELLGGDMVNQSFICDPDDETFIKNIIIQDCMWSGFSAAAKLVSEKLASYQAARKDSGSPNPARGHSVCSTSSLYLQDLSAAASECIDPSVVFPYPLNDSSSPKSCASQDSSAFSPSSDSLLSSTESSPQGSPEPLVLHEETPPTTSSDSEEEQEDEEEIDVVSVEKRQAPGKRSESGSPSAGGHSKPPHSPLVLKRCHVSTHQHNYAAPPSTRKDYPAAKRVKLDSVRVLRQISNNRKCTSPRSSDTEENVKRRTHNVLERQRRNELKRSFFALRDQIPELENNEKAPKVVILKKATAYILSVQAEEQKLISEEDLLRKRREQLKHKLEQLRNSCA
Protocol: Compounds of the invention were assayed for c-Myc/Max/EBox activity as described in the following protocol. Human his6-c-Myc and his6-Max were used with biotinylated DNA containing a single Ebox sequence (biotin[…]) purchased from MWG Operon. Free c-Myc was generated from his6-c-Myc through thrombin cleavage of the his6 tag. For 384-well plate assays, 10 μL of a 2× solution of free c-Myc (20 nM final), Ni^2+ coated Acceptor Beads (25 μg/ml final), and biotinylated Ebox oligo (10 nM final) were added to 384-well plates with a Biotek EL406 liquid handler. 50 nL of compounds from stock plates were added by pin transfer using a Janus Workstation (PerkinElmer), allowing the compounds to interact with c-Myc prior to c-Myc binding with Max. In the current assay, DMSO was not allowed to exceed 2% v/v of the assay. 10 μl of 2× master mix containing streptavidin-coated donor beads (25 μg/ml final) and his6-Max (5 nM) were added. AlphaScreen measurements were performed on an Envision plate reader (PerkinElmer) utilizing the manufacturer's protocol.
Both master mixes were made in room temperature assay buffer (50 mM HEPES, 150 mM NaCl, 0.2% w/v BSA, 0.02% w/v Tween20, 40 μg/ml glycogen, 500 μM DTT, pH 8.0, wherein both DTT and glycogen were added fresh). Alpha beads were added to respective master solutions. All subsequent steps were performed in low light conditions. Solution 1:2× solution of components with final concentrations of c-Myc Ni-coated Acceptor Beads (25 μg/ml), and biotinylated Ebox oligo (10 nM). Solution 2:2× solution of streptavidin-coated donor beads (25 μg/ml final) and his6-Max 10 μL. […] 50 nL of compounds from stock plates were added by pin transfer using a Janus Workstation. Solution 2 (10 μl) was added with the liquid handler. Plates were sealed with foil to block light exposure and prevent evaporation. Plates were very briefly centrifuged followed by 2 hour incubation. […] Excitation was at 680 nm for donor bead release of singlet oxygen and emission was read with a bandpass filter from 520-620 nm.

[2] = Homo sapiens, NCI-H2171, 72 h, Table 2, compounds of FIG. 1

Row | Compound | IC50 ([1]; Table 2, compounds of FIG. 1) [nM] | IC50 (c-Myc/Max/Ebox DNA; Table 2, compounds of FIG. 1) [nM] | IC50 [1, 2] [nM] | further results
1 | 3-(Azetidin-1-yl)-N-(3-(benzo[d]thiazol-2-yl)-6-isopropyl-4,5,6,7-tetrahydrothieno[2,3-c]pyridin-2-yl)propanamide [Compound 541] | 1000 to 10000 | 300 to 1000 |  | 
2 | CC(=O)Nc1sc2c(c1-c1nc3ccccc3s1)C[C@@H](C)N[C@H]2C (relative stereo) [Compound 206, N-(3-(benzo[d]thiazol-2-yl)-cis-5,7-dimethyl-4,5,6,7-tetrahydrothieno[2,3-c]pyridin-2-yl)acetamide] |  |  |  | IC50 ([1]; Table 3, compounds of FIG. 2): 1000 to 10000 nM; IC50 (c-Myc/Max/Ebox DNA; Table 3, compounds of FIG. 2): 1000 to 10000 nM
3 | CC(C)NCCC(=O)Nc1sc2c(c1-c1nc3ccccc3s1)CC(C)NC2C (single isomer, unassigned) [Compound 195, N-(3-(benzo[d]thiazol-2-yl)-5,7-dimethyl-4,5,6,7-tetrahydrothieno[2,3-c]pyridin-2-yl)-3-(isopropylamino)propanamide] | < 300 | < 300 |  | 
4 | CC(C)NCCC(=O)Nc1sc2c(c1-c1nc3ccccc3s1)CC(C)NC2C (single isomer, unassigned) [Compound 196, N-(3-(benzo[d]thiazol-2-yl)-5,7-dimethyl-4,5,6,7-tetrahydrothieno[2,3-c]pyridin-2-yl)-3-(isopropylamino)propanamide] |  | 300 to 1000 | < 300 | 
5 | CC(C)NCCC(=O)Nc1sc2c(c1-c1nc3ccccc3s1)CC(C)NC2C (single isomer, unassigned) [Compound 197, N-(3-(benzo[d]thiazol-2-yl)-5,7-dimethyl-4,5,6,7-tetrahydrothieno[2,3-c]pyridin-2-yl)-3-(isopropylamino)propanamide] | 300 to 1000 | 1000 to 10000 |  | 
6 | CC(C)NCCC(=O)Nc1sc2c(c1-c1nc3ccccc3s1)CC(C)NC2C (single isomer, unassigned) [Compound 198, N-(3-(benzo[d]thiazol-2-yl)-5,7-dimethyl-4,5,6,7-tetrahydrothieno[2,3-c]pyridin-2-yl)-3-(isopropylamino)propanamide] | < 300 | 1000 to 10000 |  | 
7 | CCC(C)NCCC(=O)Nc1sc2c(c1-c1nc3cc(Br)ccc3s1)CCN(C(C)C)C2 (centres unmarked) [Compound 141, N-(3-(5-bromobenzo[d]thiazol-2-yl)-6-isopropyl-4,5,6,7-tetrahydrothieno[2,3-c]pyridin-2-yl)-3-(sec-butylamino)propanamide] |  |  | 300 to 1000 | 
8 | Cn1cc(CNCCC(=O)Nc2sc3c(c2-c2nc4ccccc4s2)CCNC3)cn1 [Compound 143, N-(3-(benzo[d]thiazol-2-yl)-4,5,6,7-tetrahydrothieno[2,3-c]pyridin-2-yl)-3-(((1-methyl-1H-pyrazol-4-yl)methyl)amino)propanamide] |  |  | < 300 | 
9 | CCC(C)NCCC(=O)Nc1sc2c(c1-c1nc3cc(Br)ccc3s1)CCN(C(C)C)C2 (centres unmarked) [Compound 145, N-(3-(5-Bromobenzo[d]thiazol-2-yl)-6-isopropyl-4,5,6,7-tetrahydrothieno[2,3-c]pyridin-2-yl)-3-(sec-butylamino)propanamide] | 300 to 1000 |  |  | 
10 | CCC(C)NCCC(=O)Nc1sc2c(c1-c1nc3cc(C(F)(F)F)ccc3s1)CCN(C(C)C)C2 (centres unmarked) [Compound 146, 3-(sec-butylamino)-N-(6-isopropyl-3-(5-(trifluoromethyl)benzo[d]thiazol-2-yl)-4,5,6,7-tetrahydrothieno[2,3-c]pyridin-2-yl)propanamide] | < 300 |  |  | 
11 | CCOC(=O)CNCCC(=O)Nc1sc2c(c1-c1nc3ccccc3s1)CCNC2 [Compound 148, Ethyl (3-((3-(benzo[d]thiazol-2-yl)-4,5,6,7-tetrahydrothieno[2,3-c]pyridin-2-yl)amino)-3-oxopropyl)glycinate hydrochloride] |  |  | > 10000 | 
12 | CCC(C)NCCC(=O)Nc1sc2c(c1-c1nc3cc(I)ccc3s1)CCN(C(C)C)C2 (centres unmarked) [Compound 162, 3-(sec-butylamino)-N-(3-(5-iodobenzo[d]thiazol-2-yl)-6-isopropyl-4,5,6,7-tetrahydrothieno[2,3-c]pyridin-2-yl)propanamide dihydrochloride] |  |  | 1000 to 10000 | 

Second part, led by results:

Row | IC50 ([1]; Table 2, compounds of FIG. 1) [nM] | IC50 (c-Myc/Max/Ebox DNA; Table 2, compounds of FIG. 1) [nM] | IC50 [1, 2] [nM] | Compound | further results
13 |  | 1000 to 10000 | < 300 | COCCNCCC(=O)Nc1sc2c(c1-c1nc3ccccc3s1)CC(C)NC2C (single isomer, unassigned) [Compound 508, N-(3-(Benzo[d]thiazol-2-yl)-5,7-dimethyl-4,5,6,7-tetrahydrothieno[2,3-c]pyridin-2-yl)-3-((2-methoxyethyl)amino)propanamide] | 
14 | < 300 | 1000 to 10000 |  | COCCNCCC(=O)Nc1sc2c(c1-c1nc3ccccc3s1)CC(C)NC2C (single isomer, unassigned) [Compound 509, N-(3-(Benzo[d]thiazol-2-yl)-5,7-dimethyl-4,5,6,7-tetrahydrothieno[2,3-c]pyridin-2-yl)-3-((2-methoxyethyl)amino)propanamide] | 
15 |  | < 300 | < 300 | COCCNCCC(=O)Nc1sc2c(c1-c1nc3ccc(-c4ccncc4)cc3s1)CC(C)NC2C (single isomer, unassigned) [Compound 517, N-(5,7-Dimethyl-3-(6-(pyridin-4-yl)benzo[d]thiazol-2-yl)-4,5,6,7-tetrahydrothieno[2,3-c]pyridin-2-yl)-3-((2-methoxyethyl)amino)propanamide] | 
16 |  | < 300 | < 300 | COCCNCCC(=O)Nc1sc2c(c1-c1nc3ccc(-c4cccnc4)cc3s1)CC(C)NC2C (single isomer, unassigned) [Compound 519, N-(5,7-Dimethyl-3-(6-(pyridin-3-yl)benzo[d]thiazol-2-yl)-4,5,6,7-tetrahydrothieno[2,3-c]pyridin-2-yl)-3-((2-methoxyethyl)amino)propanamide] | 
17 | 300 to 1000 | 1000 to 10000 |  | COCCNCCC(=O)Nc1sc2c(c1-c1nc3ccc(-c4cccnc4)cc3s1)CC(C)NC2C (single isomer, unassigned) [Compound 520, N-(5,7-Dimethyl-3-(6-(pyridin-3-yl)benzo[d]thiazol-2-yl)-4,5,6,7-tetrahydrothieno[2,3-c]pyridin-2-yl)-3-((2-methoxyethyl)amino)propanamide] | 
18 |  | < 300 | < 300 | COCCNCCC(=O)Nc1sc2c(c1-c1nc3cc(-c4ccncc4)ccc3s1)CC(C)NC2C (single isomer, unassigned) [Compound 521, N-(5,7-dimethyl-3-(5-(pyridin-4-yl)benzo[d]thiazol-2-yl)-4,5,6,7-tetrahydrothieno[2,3-c]pyridin-2-yl)-3-((2-methoxyethyl)amino)propanamide] | 
19 | < 300 | < 300 |  | COCCNCCC(=O)Nc1sc2c(c1-c1nc3cc(-c4ccncc4)ccc3s1)CC(C)NC2C (single isomer, unassigned) [Compound 522, N-(5,7-dimethyl-3-(5-(pyridin-4-yl)benzo[d]thiazol-2-yl)-4,5,6,7-tetrahydrothieno[2,3-c]pyridin-2-yl)-3-((2-methoxyethyl)amino)propanamide] | 
20 |  |  | < 300 | CC(C)N1CCc2c(sc(NC(=O)CCNC3CCCC3)c2-c2nc3ccccc3s2)C1 [Compound 542, N-(3-(Benzo[d]thiazol-2-yl)-6-isopropyl-4,5,6,7-tetrahydrothieno[2,3-c]pyridin-2-yl)-3-(cyclopentylamino)propanamide] | IC50 ([1]; Table 2, compounds of FIG. 1, listed as 111): 1000 to 10000 nM
21 | < 300 |  |  | CCC(C)NCCC(=O)Nc1sc2c(c1-c1nc3ccccc3s1)CCNC2 (centres unmarked) [Compound 607, N-(3-(benzo[d]thiazol-2-yl)-4,5,6,7-tetrahydrothieno[2,3-c]pyridin-2-yl)-3-(sec-butylamino)propanamide] | 
